Reference: patent publication US20130296311A1, “INHIBITORS OF HCV NS5A” (PRESIDIO PHARMACEUTICALS, INC., priority 2010, published 2013)

Each compound was assayed on HCV 1b_Huh-Luc/Neo-ET cell line persistently expressing a bicistronic genotype 1b replicon in Huh 7 cells (assay: HCV replicon assay (luciferase readout, 72 h)). Conditions: Hepatitis C virus, Huh-7, 72 h, read-out: Inhibition of HCV genotype 1b.
Format: cell-based, HCV genotype 1b
Description: Biological activity of the compounds of the invention was determined using an HCV replicon assay. The HCV 1b_Huh-Luc/Neo-ET cell line persistently expressing a bicistronic genotype 1b replicon in Huh 7 cells was obtained from ReBLikon GMBH. This cell line was used to test compound inhibition using luciferase enzyme activity readout as a measurement of compound inhibition of replicon levels.
On Day 1 (the day after plating), each compound is added in triplicate to the cells. Plates incubated for 72 h prior to running the luciferase assay. Enzyme activity was measured using a Bright-Glo Kit (cat. number E2620) manufactured by Promega Corporation. The following equation was used to generate a percent control value for each compound.
% Control=(Average Compound Value/Average Control)*100
The EC50 value was determined using GraphPad Prism and the following equation:
Y=Bottom+(Top-Bottom)/(1+10̂((LogIC50−X)*HillSlope))
EC50 values of compounds are determined several times in the replicon assay.
Example compounds of the disclosed invention are illustrated in Tables 1-16 attached as appendices. The tables show inhibitory activity of many of the example compounds with respect to HCV 1b. […] The tables further provide mass spectrometry results for the synthesized example compounds.

| SMILES | EC50 [nM] |
| --- | --- |
| COC(=O)N[C@@H](C)C(=O)N1CCC[C@H]1c1ncc(-c2ccc(C#Cc3ccc(-c4cnc([C@@H]5CCCN5C(=O)[C@@H](c5ccccc5)N5CCOC5=O)[nH]4)cc3)cc2)[nH]1 [Compound 1008] | < 1 |
| CN1CCN(C(=O)N[C@@H](C(=O)N2CCC[C@H]2c2cc(-c3ccc(C#Cc4ccc(-c5cnc([C@@H]6CCCN6C(=O)[C@H](NC(=O)N6CCN(C)CC6)c6ccccc6)[nH]5)cc4)cc3)n[nH]2)c2ccccc2)CC1 [Compound 213] | < 1 |
| O=C(N[C@@H](C(=O)N1CCC[C@H]1C(=O)NCc1ccc(C#Cc2ccc(-c3cnc([C@@H]4CCCN4C(=O)[C@H](NC(=O)C4CC4)c4ccccc4)[nH]3)cc2)cc1)c1ccccc1)C1CC1 [Compound 190] | < 1 |
| CC(C)[C@H](NC(=O)N1CCN(C)CC1)C(=O)N1CCC[C@H]1c1ncc(-c2ccc(C#Cc3ccc(-c4cnc([C@@H]5CCCN5C(=O)[C@@H](NC(=O)N5CCN(C)CC5)C(C)C)[nH]4)cc3)cc2)[nH]1 [Compound 287] | > 1000 |
| CC(C)(C)OC(=O)N1CCC[C@H]1c1ncc(C#Cc2ccc(-c3cnc([C@@H]4CCCN4C(=O)OC(C)(C)C)[nH]3)cc2)[nH]1 [Compound 101] | 10 to 999 |
| COC(=O)N[C@H](C(=O)N1CCC[C@H]1c1nc2ccc(C#Cc3ccc(-c4cnc([C@@H]5CCCN5)[nH]4)cc3)cc2[nH]1)C(C)C [Compound 1055] | 10 to 999 |
| COCCOc1c(C#Cc2ccc3nc([C@@H]4CCCN4C(=O)[C@@H](NC(=O)OC)C(C)C)[nH]c3c2)ccc(-c2cnc([C@@H]3CCCN3C(=O)[C@H](NC(=O)OC)C(C)C)[nH]2)c1OCCOC [Compound 1066] | < 1 |
| COC(=O)N[C@@H](C(=O)N1CCC[C@H]1c1ncc(-c2ccc(C#Cc3ccc(C(=O)NC[C@@H]4CCCN4C(=O)[C@@H](c4ccccc4)N4CCCCC4)cc3)cc2)[nH]1)c1ccccc1 [Compound 233] | < 1 |
| COC(=O)N[C@H](C(=O)N1CCC[C@H]1c1ncc(-c2ccc(C#Cc3ccc(-c4cnc([C@@H]5CCCN5C(=O)[C@H](NC(=O)N5CCN(C)CC5)c5ccccc5)[nH]4)cc3)cc2)[nH]1)C(C)C [Compound 989] | < 1 |
| COC(=O)N[C@@H](C(=O)N1CCC[C@H]1c1ncc(-c2ccc(C#Cc3ccc(-c4cnc([C@@H]5CCCN5C(=O)[C@H](NC(=O)[C@H]5CCCN5)c5ccccc5)[nH]4)cc3)cc2)[nH]1)c1ccccc1 [Compound 207] | < 1 |
| COC(=O)N[C@@H](C(=O)N1CCC[C@H]1c1ncc(C#Cc2ccc(-c3ccc(-c4cnc([C@@H]5CCCN5C(=O)[C@@H](c5ccccc5)N(C)C)[nH]4)cc3)cc2)[nH]1)c1ccccc1 [Compound 755] | < 1 |
| CN(C)C(=O)N[C@@H](C(=O)N1CCC[C@H]1c1cc(-c2ccc(C#Cc3ccc(-c4cnc([C@@H]5CCCN5C(=O)[C@H](NC(=O)N(C)C)c5ccccc5)[nH]4)cc3)cc2)n[nH]1)c1ccccc1 [Compound 221] | < 1 |
| COC(=O)N[C@H](C(=O)N1CCC[C@H]1c1ncc(C#Cc2ccc3cc(-c4cnc([C@@H]5CCCN5C(=O)[C@@H](NC(=O)OC)C5CCOCC5)[nH]4)ccc3c2)[nH]1)C1CCOCC1 [Compound 1080] | < 1 |
| COC(=O)N[C@@H](C(=O)N1CCC[C@H]1c1ncc(-c2ccc(C#Cc3ccc(-c4cnc([C@@H]5CCCN5C(=O)[C@H](NC(=O)N5CCS(=O)(=O)CC5)c5ccccc5)[nH]4)cc3)cc2)[nH]1)c1ccccc1 [Compound 253] | < 1 |
| CN1CCC[C@@H]1C(=O)N[C@@H](C(=O)N1CCC[C@H]1c1ncc(-c2ccc(C#Cc3ccc(-c4cnc([C@@H]5CCCN5C(=O)[C@H](NC(=O)C5CC5)c5ccccc5)[nH]4)cc3)cc2)[nH]1)c1ccccc1 [Compound 216] | < 1 |
| CC(C)(C)OC(=O)N[C@@H](C(=O)N1CCC[C@H]1C(=O)NCc1ccc(C#Cc2cnc([C@@H]3CCCN3C(=O)[C@H](NC(=O)OC(C)(C)C)c3ccccc3)[nH]2)cc1)c1ccccc1 [Compound 119] | < 1 |

| SMILES | EC50 [nM] |
| --- | --- |
| COC(=O)N[C@@H](C(=O)N1CCC[C@H]1c1cc(-c2ccc(C#Cc3ccc(-c4cnc([C@@H]5CCCN5C(=O)[C@H](NC(=O)OC)c5ccccc5)[nH]4)cc3)cc2)n[nH]1)c1ccccc1 [Compound 219] | < 1 |
| COC(=O)N[C@H](C(=O)N1CCC[C@H]1c1nc2ccc(C#Cc3ccc(-c4cnc([C@@H]5CCCN5C(=O)[C@H](C(C)C)N(C)C)[nH]4)cc3)cc2[nH]1)C(C)C [Compound 866] | < 1 |
| COC(=O)N[C@H](C(=O)N1CCC[C@H]1c1nc(-c2cnc3cc(C#Cc4cnc([C@@H]5CCCN5C(=O)[C@@H](NC(=O)OC)C(C)C)[nH]4)ccc3c2)c[nH]1)C(C)C [Compound 1076] | < 1 |
| COC(=O)N[C@@H](C(=O)N1CCC[C@H]1c1ncc(-c2ccc(C#Cc3ccc(-c4cnc([C@@H]5CCCN5C(=O)[C@H](NC(=O)OC)c5ccccc5)[nH]4)cc3)cc2)[nH]1)c1ccccc1 [Compound 156] | < 1 |
| O=C(N[C@@H](C(=O)N1CCC[C@H]1c1nc(-c2ccc3cc(C#Cc4cnc([C@@H]5CCCN5C(=O)[C@H](NC(=O)N5CCOCC5)c5ccccc5)[nH]4)ccc3c2)c[nH]1)c1ccccc1)N1CCOCC1 [Compound 808] | < 1 |
| CN1CCC(C(=O)N[C@@H](C(=O)N2CCC[C@H]2c2cc(-c3ccc(C#Cc4ccc(-c5cnc([C@@H]6CCCN6C(=O)[C@H](NC(=O)C6CCN(C)CC6)c6ccccc6)[nH]5)cc4)cc3)n[nH]2)c2ccccc2)CC1 [Compound 223-1] | < 1 |
| COC(=O)N[C@H](C(=O)N1CCC[C@H]1c1nc2c([nH]1)-c1ccc(C#Cc3ccc(-c4cnc([C@@H]5CCCN5C(=O)[C@@H](NC(=O)OC)C5CCOCC5)[nH]4)cc3)cc1CCC2)C(C)C [Compound 1097] | < 1 |
| COC(=O)N[C@H](C(=O)N(C)[C@@H](C)c1ncc(-c2ccc(C#Cc3ccc(-c4cnc([C@@H]5CCCN5C(=O)[C@@H](NC(=O)OC)C(C)C)[nH]4)cc3)cc2)[nH]1)C(C)C [Compound 267] | < 1 |
| COC(=O)N[C@@H](C(=O)N1CCC[C@H]1c1ncc(-c2ccc(C#Cc3ccc(-c4cnc([C@@H]5CCCN5C(=O)[C@H](NC(=O)N5CCC[C@@H](O)C5)c5ccccc5)[nH]4)cc3)cc2)[nH]1)c1ccccc1 [Compound 264] | < 1 |
| COC(=O)N[C@H](C(=O)N1CCC[C@H]1c1nc2c([nH]1)-c1ccc(C#Cc3ccc(-c4cnc([C@@H]5CCCN5C(=O)[C@H](NC(=O)OC)c5ccccc5)[nH]4)cc3F)cc1CC2)C(C)C [Compound 1098] | < 1 |
| COC(=O)N[C@@H](C(=O)N1CCC[C@H]1c1ncc(C#Cc2ccc(-c3ccc(-c4cnc([C@@H]5CCCN5C(=O)[C@@H](c5ccccc5)N5CCCCC5)[nH]4)cc3)cc2)[nH]1)c1ccccc1 [Compound 752] | < 1 |
| O=C(N[C@@H](C(=O)N1CCC[C@H]1c1cc(-c2ccc(C#Cc3ccc(-c4cnc([C@@H]5CCCN5C(=O)[C@H](NC(=O)C5CC5)c5ccccc5)[nH]4)cc3)cc2)n[nH]1)c1ccccc1)C1CC1 [Compound 212] | < 1 |
| COC(=O)N[C@@H](C(=O)N1CCC[C@H]1c1ncc(-c2ccc(C#Cc3ccc(-c4cnc([C@@H]5CCCN5C(=O)[C@@H]5CCCN5C)[nH]4)cc3)cc2)[nH]1)c1ccccc1 [Compound 202] | < 1 |
| COC(=O)N[C@@H](C(=O)N1CCC[C@H]1c1ncc(-c2ccc(C#Cc3ccc(-c4cnc([C@@H]5CCCN5C(=O)[C@H](C(C)C)N5CCOC5=O)[nH]4)cc3)cc2)[nH]1)c1ccccc1 [Compound 1005] | < 1 |
| O=C(N[C@@H](C(=O)N1CCC[C@H]1c1ncc(-c2ccc(C#Cc3ccc(-c4cnc([C@@H]5CCCN5C(=O)[C@H](NC(=O)N5CCCC5)c5ccccc5)[nH]4)cc3)cc2)[nH]1)c1ccccc1)N1CCCC1 [Compound 249] | < 1 |

Same assay, conditions: Hepatitis C virus, Huh-7, read-out: Inhibition of HCV genotype 1b

| SMILES | EC50 [nM] |
| --- | --- |
| COC(=O)N[C@H](C(=O)N1CCC[C@H]1c1ncc(-c2ccc(C#Cc3ccc(-c4cnc([C@@H]5CCCN5C(=O)[C@@H](NC(=O)OC)C5CCOCC5)[nH]4)cc3)cc2)[nH]1)C1CCCC1 [Compound 1221] | < 1 |
| CC[C@H](NC(=O)OC)C(=O)N1CCC[C@H]1c1nc2ccc(C#Cc3ccc(-c4cnc([C@@H]5CCCN5C(=O)[C@@H](NC(=O)OC)[C@@H](C)OC)[nH]4)cc3)cc2[nH]1 [Compound 1245] | < 1 |
| COC(=O)N[C@H](C(=O)N1CCN(C(=O)OC)C[C@H]1c1ncc(-c2ccc(C#Cc3ccc4nc([C@@H]5CCCN5C(=O)[C@@H](NC(=O)OC)C(C)C)[nH]c4c3)cc2)[nH]1)C(C)C [Compound 1228] | < 1 |
| COC[C@H](NC(=O)OC)C(=O)N1CCC[C@H]1c1nc2ccc3cc(C#Cc4ccc5nc([C@@H]6CCCN6C(=O)[C@@H](NC(=O)OC)C(C)C)[nH]c5c4)ccc3c2[nH]1 [Compound 1288] | < 1 |
| CC[C@H](C)[C@H](NC(=O)OC)C(=O)N1CCC[C@H]1c1nc(C)c(C#Cc2ccc3cc(-c4cnc([C@@H]5CCCN5C(=O)[C@@H](NC(=O)OC)[C@@H](C)OC)[nH]4)ccc3c2)[nH]1 [Compound 1265] | < 1 |
| COC(=O)N[C@H](C(=O)N1CCC[C@H]1c1ncc(-c2ccc(C#Cc3ccc(-c4cnc([C@@H]5CN(C(=O)OC)CCN5C(=O)[C@@H](NC(=O)OC)C(C)C)[nH]4)cc3)cc2)[nH]1)C(C)C [Compound 1204] | < 1 |
| COC(=O)N[C@H](C(=O)N1CCC[C@H]1c1ncc(-c2ccc3cc(C#Cc4[nH]c([C@@H]5CCCN5C(=O)[C@@H](NC(=O)OC)[C@@H](C)OC)nc4C(F)(F)F)ccc3c2)[nH]1)[C@@H](C)OC [Compound 1255] | < 1 |
